The assay deals with T1, MRGPRX2 (Homo sapiens, UniProt Q96LB1).
T1 sequence (Q96LB1 1-330): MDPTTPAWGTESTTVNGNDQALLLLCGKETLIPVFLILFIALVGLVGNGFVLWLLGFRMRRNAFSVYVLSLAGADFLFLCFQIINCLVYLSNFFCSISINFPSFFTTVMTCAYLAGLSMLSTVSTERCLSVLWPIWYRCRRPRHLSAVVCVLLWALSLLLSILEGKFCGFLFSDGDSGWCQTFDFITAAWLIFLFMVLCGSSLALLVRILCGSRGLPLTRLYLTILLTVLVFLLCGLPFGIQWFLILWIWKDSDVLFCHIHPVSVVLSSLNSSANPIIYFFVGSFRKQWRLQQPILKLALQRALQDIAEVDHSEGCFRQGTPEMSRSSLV
The assay can be described thus: MRGPRX2 reporter cell assay (NFAT-RE luciferase, Substance P stimulation). To be noted: U2OS cells stably transfected with MRGPRX2 and NFAT-RE luciferase reporter; Substance P at EC80; class symbols. The class given is cell-based. The method, then:
MRGPRX2 Reporter Cell Assays U2OS cells (ATCC, Manassas, VA) were stably transfected with MRGPRX2 expression clones (GeneCopoeia, Rockville, MD) and the pGL4.30 [luc2P/NFAT-RE/Hygro] reporter plasmid (Promega, Madison, WI). Clonal cells were maintained in Growth Media (McCoy's 5A, 10% FBS, 495 μg/ml hygromycin, 2 μg/ml puromycin, 100 units/ml penicillin, and 100 ug/ml streptomycin). The day before assay, cells were plated to white 384-well microplates at 3000 (MRGPRX2) cells/well in 10 ul Assay Media (McCoy's 5A, 2% charcoal dextran stripped FBS, 100 units/ml penicillin, and 100 ug/ml streptomycin) (Gibco, Thermo Fisher) and allowed to adhere overnight. The following day, serially diluted compound stocks were added directly to the cells (final DMSO concentration of 0.5%) and pre-incubated for 30 minutes at 37° C., 5% CO2. The final concentration of Substance P (Tocris, Minneapolis, MN, or PEPTIDE INSTITUTE, Osaka, Japan) corresponding to EC80 was added to stimulate the (MRGPRX2) cells. Cells were returned to the incubator for 6 hrs, after which 5 ul of ONE-GLO substrate (Promega) was added. Luminescence was read within 15 minutes (BioTek, Winooski, VT or infinite M1000Pro, Tecan Japan, Kanagawa, Japan). Percent inhibition for each test compound was calculated using the formula: […] where: • A=the luminescence count of the “test compound” well • B=the median luminescence count of the “Vehicle (0.5% DMSO)” wells • C═the median luminescence count of the “Vehicle (0.5% DMSO)+5 uM of substance P” wells The mean percent inhibition of each concentration of “test compound” was used to generate dose-response curves. IC50 values were calculated using a four-parameter logistic fit to the data using GraphPad Prism software. • +++: […]
Background: In a reporter assay the amount or activity of a reporter protein is the signal.

Molecule `Cn1cc(-c2c(-c3c(C(F)F)nn4c3OC[C@@H](NC(=O)[C@@H]3C[C@@H]3F)C4)[nH]c3ncccc23)c(OC(F)F)n1` [EX. 549] displayed an IC50 below 0.01 µM.
As to `Cn1cc(-c2c(-c3c(C4CC4)nn4c3OC[C@@H](O)C4)[nH]c3ncccc23)c(OC(F)F)n1` [EX. 485], the concentration for half-maximal inhibition (IC50) is below 0.01 µM.
Turning to `OCCO[C@@H]1COc2c(-c3[nH]c4ncccc4c3-c3cccnc3OC(F)F)c(C(F)F)nn2C1` [EX. 495], the IC50 is below 0.01 µM.
As for `CO[C@]1(C)COc2c(-c3[nH]c4ncccc4c3-c3cccnc3OC(F)F)c(C(F)F)nn2C1` [EX. 439], the figure is below 0.01 µM; as for `Cc1nn2c(c1-c1[nH]c3ncccc3c1-c1cccnc1OC(F)F)OC[C@@H](OCCO)C2` [EX. 498], below 0.01 µM; as for `C[C@@H](O)CC(=O)N[C@@H]1COc2c(-c3[nH]c4ncccc4c3-c3cn(C)nc3OC(F)F)c(C(F)F)nn2C1` [EX. 555], below 0.01 µM.
As to `CN(C)S(=O)(=O)N[C@@H]1COc2c(-c3[nH]c4ncccc4c3-c3cn(C)nc3OC(F)F)c(C(F)F)nn2C1` [EX. 576], the 50% inhibitory concentration (IC50) is below 0.01 µM.
The molecule `Cn1cc(-c2c(-c3c(C(F)F)nn4c3OC[C@@H](OCCO)C4)[nH]c3ncccc23)c(C#N)n1` [EX. 500] showed an IC50 below 0.01 µM.
The molecule `N#Cc1ncccc1-c1c(-c2c(C(F)F)nn3c2OCCC3)[nH]c2ncccc12` [EX. 411] yielded a half-inhibitory concentration (IC50) of 0.01 to 0.1 µM.
On to `COC(=O)N[C@@H]1COc2c(-c3[nH]c4ncccc4c3-c3ccncc3C#N)c(C(F)F)nn2C1` [EX. 515], for which the IC50 is below 0.01 µM.
As for `CCn1cc(-c2[nH]c3ncccc3c2-c2ccccc2C#N)c(C(F)(F)F)n1` [EX. 147], the IC50 is below 0.01 µM.
As to `[2H]C([2H])([2H])Oc1ccc(C#N)c(-c2c(-c3c(C)nn4cc(C)cnc34)[nH]c3ncccc23)c1` [EX. 266], the IC50 is below 0.01 µM.
Take `[2H]C([2H])([2H])Oc1ccc(C#N)c(-c2c(-c3c(C)nn4c3OC[C@@H](O)C4)[nH]c3ncccc23)c1` [EX. 366, 2-[2-[(6S)-6-hydroxy-2-methyl-6,7-dihydro-5H-pyrazolo[5,1-b] [1,3]oxazin-3-yl]-1H-pyrrolo[2,3-b]pyridin-3-yl]-4-(trideuteriomethoxy)benzonitrile]: the IC50 is below 0.01 µM.
Turning to `FC(F)c1nn2c(c1-c1[nH]c3ncccc3c1C1=CCCCC1)OCCC2` [EX. 430], the 50% inhibitory concentration (IC50) is below 0.01 µM.
As to `Cn1cc(-c2c(-c3c(C(F)F)nn4c3OC[C@@H](O)C4)[nH]c3ncsc23)c(OC(F)F)n1` [EX. 427, (S)-3-(6-(3-(difluoromethoxy)-1-methyl-1H-pyrazol-4-yl)-4H-pyrrolo[2,3-d]thiazol-5-yl)-2-(difluoromethyl)-6,7-dihydro-5H-pyrazolo[5,1-b] [1,3]oxazin-6-ol], the concentration for half-maximal inhibition (IC50) is below 0.01 µM.
In turn, `N#Cc1ccccc1-c1c(-c2cnn3c2OCCC3)[nH]c2ncccc12` [EX. 50] returned a concentration for half-maximal inhibition (IC50) below 0.01 µM.
For `Cn1cc(-c2c(-c3c(C(F)F)nn4c3OC[C@@H](N)C4)[nH]c3ncsc23)c(OC(F)F)n1` [EX. 428, (S)-3-(6-(3-(difluoromethoxy)-1-methyl-1H-pyrazol-4-yl)-4H-pyrrolo[2,3-d]thiazol-5-yl)-2-(difluoromethyl)-6,7-dihydro-5H-pyrazolo[5,1-b] [1,3]oxazin-6-amine] the value was below 0.01 µM; for `Cn1cc(-c2c(-c3c(C(F)F)nn4c3OC[C@@H](OC(F)F)C4)[nH]c3ncccc23)c(OC(F)F)n1` [EX. 529], below 0.01 µM.
As for `CO[C@@H]1COc2c(-c3[nH]c4ncccc4c3-c3cn(C)nc3OC(F)F)c(C)nn2C1` [EX. 541], the figure is below 0.01 µM; as for `Cn1cc(-c2c(-c3c(C(F)(F)F)nn4c3OCCC4)[nH]c3ncccc23)c(OC(F)F)n1` [EX. 528], below 0.01 µM.
`Cn1cc(-c2c(-c3c(C(F)F)nn4c3OCC4)[nH]c3ncccc23)c(OC(F)F)n1` [EX. 432] returned a concentration for half-maximal inhibition (IC50) below 0.01 µM.
In turn, `COc1ccc(F)cc1-c1[nH]c2ncccc2c1C1=CC(C)(C)CCC1OC` (stereo not drawn) [EX. 351, 2-(5-fluoro-2-methoxyphenyl)-3-(6-methoxy-3,3-dimethylcyclohex-1-en-1-yl)-1H-pyrrolo[2,3-b]pyridine] came in with an IC50 of 0.1 to 1 µM.
For the molecule `FC(F)Oc1ncccc1-c1c(-c2c(C(F)F)nn3c2OCCCC3)[nH]c2ncccc12` [EX. 441], the IC50 was below 0.01 µM.
`Cn1cc(-c2c(-c3c(C(F)F)nn4c3OC[C@@H](OCCNS(C)(=O)=O)C4)[nH]c3ncccc23)c(OC(F)F)n1` [EX. 536] had an IC50 below 0.01 µM.
`COc1ccc(C#N)c(-c2c(-c3c(C)nn4c3OCC(N)C4)[nH]c3ncccc23)c1` (stereo not drawn) [EX. 355]: the IC50 was below 0.01 µM.
`COc1ccc(C#N)c(-c2c(-c3c(C(F)F)nn4c3OC[C@H](N)C4)[nH]c3ncccc23)c1` [EX. 361] yielded an IC50 below 0.01 µM.
Turning to `Cn1cc(-c2c(-c3c(C(F)F)nn4c3OC[C@@H](NC(=O)[C@H]3C[C@H]3F)C4)[nH]c3ncccc23)c(OC(F)F)n1` (atropisomer, axis not shown) [EX. 548], the half-inhibitory concentration (IC50) was below 0.01 µM.
For `Cn1cc(-c2c(-c3c(C(F)F)nn4c3OC[C@@H](NC(=O)N3CC(O)C3)C4)[nH]c3ncccc23)c(OC(F)F)n1` [EX. 569], the IC50 was below 0.01 µM.
For `[2H]C([2H])([2H])Oc1ccc(C#N)c(-c2c(-c3c(C)nn4cc(OC)cnc34)[nH]c3ncccc23)c1` [EX. 179], the IC50 is below 0.01 µM.
For `CCc1ccc(C#N)c(-c2c(-c3cn(C)nc3C(F)F)[nH]c3ncccc23)c1` [EX. 116] the value was below 0.01 µM; for `C[C@H](O)CC(=O)N[C@@H]1COc2c(-c3[nH]c4ncccc4c3-c3cn(C)nc3OC(F)F)c(C(F)F)nn2C1` [EX. 556], below 0.01 µM; for `CS(=O)(=O)N[C@@H]1COc2c(-c3[nH]c4ncccc4c3-c3cccnc3OC(F)F)c(C3CC3)nn2C1` [EX. 456], below 0.01 µM.
For `Cn1cc(-c2c(-c3c(C4CC4)nn4c3OCCC4)[nH]c3ncccc23)c(OC(F)F)n1` [EX. 420], the IC50 was below 0.01 µM.
In turn, `N#Cc1ccccc1-c1c(-c2c[nH]nc2C(F)(F)F)[nH]c2ncccc12` [EX. 94] gave an IC50 below 0.01 µM.
Take `Cn1cc(-c2c(-c3c(C(F)F)nn4c3OC[C@@H](NC(=O)C(C)(C)O)C4)[nH]c3ncccc23)c(OC(F)F)n1` [EX. 587]: the IC50 was below 0.01 µM.
Take `COc1ccc(C#N)c(-c2c(-c3c(C(F)F)nn4c3OC[C@@H](F)C4)[nH]c3ncccc23)c1` [EX. 471]: the IC50 was below 0.01 µM.
`Cn1cc(-c2c(-c3c(C(F)F)nn4c3OC[C@@H](NC(=O)C3CC3)C4)[nH]c3ncccc23)c(C#N)n1` [EX. 593, (S)—N-(3-(3-(3-cyano-1-methyl-1H-pyrazol-4-yl)-1H-pyrrolo[2,3-b]pyridin-2-yl)-2-(difluoromethyl)-6,7-dihydro-5H-pyrazolo[5,1-b] [1,3]oxazin-6-yl) cyclopropanecarboxamide] gave an IC50 below 0.01 µM.
For `FC(F)Oc1ccccc1-c1c(-c2c(C(F)F)nn3c2OC[C@@H](F)C3)[nH]c2ncccc12` [EX. 444] the value was below 0.01 µM; for `COc1ccc(C#N)c(-c2c(-c3c(C)nn4c3OCC(NC(C)=O)C4)[nH]c3ncccc23)c1` (stereo not drawn) [EX. 354, N-[3-[3-(2-cyano-5-methoxy-phenyl)-1H-pyrrolo[2,3-b]pyridin-2-yl]-2-methyl-6,7-dihydro-5H-pyrazolo[5,1-b] [1,3]oxazin-6-yl]acetamide], below 0.01 µM.

As usually defined, the IC50 is the midpoint of a concentration-inhibition curve. Read a high IC50 as lower potency.

The values above are taken from patent US20250326772A1, “MRGPRX2 ANTAGONISTS, PHARMACEUTICAL COMPOSITION INCLUDING MRGPRX2 ANTAGONIST, AND METHOD OF TREATING MRGPRX2-MEDIATED DISEASE OR DISORDER” (KYORIN PHARMACEUTICAL CO., LTD., priority 2024, published 2025).
